pIC50: −log10 of the molar value. Activity calls are given as the source filed them. The rule behind the calls is not given here.
How the values were obtained:
Caco-2 [1] = experiment: Induction of apoptosis in human Caco-2 cells assessed as early apoptotic cells by measuring bright green patch incubated at 0.098 uM for 72 hrs by acridine orange-ethidium bromide dual staining based fluorescence microscopic analysis; assay type: functional, cell-based
Caco-2 [2] = experiment: Anticancer activity against human Caco-2 cells assessed as absence of normal spindle shape incubated at 0.098uM for 72 hrs by phase contrast inverted microscopic analysis; assay type: functional, cell-based
Caco-2 [3] = experiment: Induction of apoptosis in human Caco-2 cells assessed as viable cells incubated at 0.098 uM for 72 hrs by annexin V-FITC based propidium iodide dual staining assay (reference value: 99.89%); assay type: functional; conditions: read-out: Activity
HepG2 [4] = experiment: Induction of apoptosis in human HepG2 cells assessed as late apoptotic cells incubated at 0.098 uM for 72 hrs by annexin V-FITC based propidium iodide dual staining assay (reference value: 0.66%); assay type: functional
HepG2 [5] = experiment: Induction of apoptosis in human HepG2 cells assessed as early apoptotic cells incubated at 0.098 uM for 72 hrs by annexin V-FITC based propidium iodide dual staining assay (reference value: 1.74%); assay type: functional
MCF7 [6] = experiment: Induction of apoptosis in human MCF7 cells assessed as necrotic cells incubated at 0.098 uM for 72 hrs by annexin V-FITC based propidium iodide dual staining assay (reference value: 0.03%); assay type: functional
HepG2 [7] = experiment: Induction of oxidative stress in human HepG2 cells assessed as cell death by measuring redox alteration fluorescence incubated at 0.097 uM for 72 hrs in presence of dihydro dichlorofluorescein diacetate by DCFH-DA based flow cytometric analysis relative to control; assay type: functional
HepG2 [8] = experiment: Induction of apoptosis in human HepG2 cells assessed as necrotic cells incubated at 0.098 uM for 72 hrs by annexin V-FITC based propidium iodide dual staining assay (reference value: 0.33%); assay type: functional
HepG2 [9] = experiment: Induction of apoptosis in human HepG2 cells assessed as total apoptotic cells incubated at 0.098 uM for 72 hrs by annexin V-FITC based propidium iodide dual staining assay (reference value: 0.99 +/- 0.02%); assay type: functional
Caco-2 [10] = experiment: Anticancer activity against human Caco-2 cells assessed as round cells incubated at 0.098uM for 72 hrs by phase contrast inverted microscopic analysis; assay type: functional, cell-based
HepG2 [11] = experiment: Induction of apoptosis in human HepG2 cells assessed as necrotic cells incubated at 0.017 uM for 72 hrs by annexin V-FITC based propidium iodide dual staining assay (reference value: 0.33%); assay type: functional
HeLa [12] = experiment: Induction of apoptosis in human HeLa cells assessed as late apoptotic cells incubated at 0.017 uM for 72 hrs by annexin V-FITC based propidium iodide dual staining assay (reference value: 0%); assay type: functional
HepG2 [13] = experiment: Induction of apoptosis in human HepG2 cells assessed as late apoptotic cells incubated at 0.017 uM for 72 hrs by annexin V-FITC based propidium iodide dual staining assay (reference value: 0.66%); assay type: functional
HepG2 [14] = experiment: Induction of apoptosis in human HepG2 cells assessed as viable cells by measuring green uniform patch incubated at 0.017 uM for 72 hrs by acridine orange-ethidium bromide dual staining based fluorescence microscopic analysis; assay type: functional, cell-based
MCF7 [15] = experiment: Induction of apoptosis in human MCF7 cells assessed as viable cells by measuring green uniform patch incubated at 0.017 uM for 72 hrs by acridine orange-ethidium bromide dual staining based fluorescence microscopic analysis; assay type: functional, cell-based
HepG2 [16] = experiment: Induction of apoptosis in human HepG2 cells assessed as early apoptotic cells incubated at 0.11 uM for 72 hrs by annexin V-FITC based propidium iodide dual staining assay (reference value: 1.74%); assay type: functional
UMUC3 = experiment: Anti-clonogenicic activity in human UC3 cells assessed as reduction of colony formation at 5 uM for 24 hrs by crystal violet based staining relative to control; assay type: functional; set-up: scale not given: the % may be the effect or the level left
Caco-2 [17] = experiment: Induction of apoptosis in human Caco-2 cells assessed as early apoptotic cells by measuring bright green patch incubated at 0.11 uM for 72 hrs by acridine orange-ethidium bromide dual staining based fluorescence microscopic analysis; assay type: functional, cell-based
HeLa [18] = experiment: Induction of oxidative stress in human HeLa cells assessed as cell death by measuring redox alteration fluorescence incubated at 0.098 uM for 72 hrs in presence of dihydro dichlorofluorescein diacetate by DCFH-DA based flow cytometric analysis relative to control; assay type: functional
Caco-2 [19] = experiment: Induction of apoptosis in human Caco-2 cells assessed as necrotic cells incubated at 0.11 uM for 72 hrs by annexin V-FITC based propidium iodide dual staining assay (reference value: 0.02%); assay type: functional
HeLa [20] = experiment: Anticancer activity against human HeLa cells assessed as round cells incubated at 0.11 uM for 72 hrs by phase contrast inverted microscopic analysis; assay type: functional, cell-based
HepG2 [21] = experiment: Anticancer activity against human HepG2 cells assessed as absence of normal spindle shape incubated at 0.11 uM for 72 hrs by phase contrast inverted microscopic analysis; assay type: functional, cell-based
HeLa [22] = experiment: Anticancer activity against human HeLa cells assessed as losing contact with neighbouring cells incubated at 0.11 uM for 72 hrs by phase contrast inverted microscopic analysis; assay type: functional, cell-based
MCF7 [23] = experiment: Anticancer activity against human MCF7 cells assessed as losing contact with neighbouring cells incubated at 0.11 uM for 72 hrs by phase contrast inverted microscopic analysis; assay type: functional, cell-based
HepG2 [24] = experiment: Anticancer activity against human HepG2 cells assessed as cell shrinkage incubated at 0.11 uM for 72 hrs by phase contrast inverted microscopic analysis; assay type: functional, cell-based
HepG2 [25] = experiment: Anticancer activity against human HepG2 cells incubated for 24 hrs by MTT assay; assay type: functional, cell-based; conditions: HepG2, 24 h
HepG2 [26] = experiment: Induction of oxidative stress in human HepG2 cells assessed as cell death by measuring redox alteration fluorescence incubated at 0.027 uM for 72 hrs in presence of dihydro dichlorofluorescein diacetate by DCFH-DA based flow cytometric analysis relative to control; assay type: functional
HeLa [27] = experiment: Anticancer activity against human HeLa cells assessed as smaller cells incubated at 0.097uM for 72 hrs by phase contrast inverted microscopic analysis; assay type: functional, cell-based
HeLa [28] = experiment: Anticancer activity against human HeLa cells assessed as cell shrinkage incubated at 0.097uM for 72 hrs by phase contrast inverted microscopic analysis; assay type: functional, cell-based
MCF7 [29] = experiment: Induction of apoptosis in human MCF7 cells assessed as early apoptotic cells by measuring bright green patch incubated at 0.097 uM for 72 hrs by acridine orange-ethidium bromide dual staining based fluorescence microscopic analysis; assay type: functional, cell-based
HeLa [30] = experiment: Anticancer activity against human HeLa cells assessed as absence of normal spindle shape incubated at 0.097uM for 72 hrs by phase contrast inverted microscopic analysis; assay type: functional, cell-based
MCF7 [31] = experiment: Anticancer activity against human MCF7 cells assessed as losing contact with neighbouring cells incubated at 0.097uM for 72 hrs by phase contrast inverted microscopic analysis; assay type: functional, cell-based
MCF7 [32] = experiment: Induction of apoptosis in human MCF7 cells assessed as necrotic cells incubated at 0.097 uM for 72 hrs by annexin V-FITC based propidium iodide dual staining assay (reference value: 0.03%); assay type: functional
Caco-2 [33] = experiment: Induction of apoptosis in human Caco-2 cells assessed as late apoptotic cells incubated at 0.097 uM for 72 hrs by annexin V-FITC based propidium iodide dual staining assay (reference value: 0.02%); assay type: functional
MCF7 [34] = experiment: Induction of apoptosis in human MCF7 cells assessed as increase in Bax expression level relative to control; assay type: functional
HeLa [35] = experiment: Induction of apoptosis in human HeLa cells assessed as total apoptotic cells incubated at 0.097 uM for 72 hrs by annexin V-FITC based propidium iodide dual staining assay (reference value: 0 +/- 0.035%); assay type: functional

O=C(CN1C(=O)CN(/N=C/c2ccc([N+](=O)[O-])o2)C1=O)c1ccc(Cl)cc1
Activity (Caco-2 [1]): Active | Activity (Caco-2 [2]): Active | viability at 0.098 µM (Caco-2 [3]): 60.6% | Activity (HepG2 [4]): 34.89% | Activity (HepG2 [5]): 6.31% | Activity (MCF7 [6]): 3.18% | Activity (HepG2 [7]): 38.99% | Activity (HepG2 [8]): 3.85% | Activity (HepG2 [9]): 38.74% | Activity (Caco-2 [10]): Active

O=c1[nH]cc(F)c(=O)[nH]1 [FLUOROURACIL]
Activity (HepG2 [11]): 1.56% | Activity (HeLa [12]): 3.4% | Activity (HepG2 [13]): 2.34% | Activity (HepG2 [14]): Active | Activity (MCF7 [15]): Active

C#CCN1C(=O)CN(/N=C/c2ccc([N+](=O)[O-])o2)C1=O
Activity (HepG2 [16]): 4.8% | Activity (UMUC3): 75% | Activity (Caco-2 [17]): Active | Activity (HeLa [18]): 30.75% | Activity (Caco-2 [19]): 0.57% | Activity (HeLa [20]): Active | Activity (HepG2 [21]): Active | Activity (HeLa [22]): Active | Activity (MCF7 [23]): Active | Activity (HepG2 [24]): Active | pIC50 (HepG2 [25]): 3.93 | Activity (HepG2 [26]): 54.19%

NS(=O)(=O)c1ccc(-n2cc(CN3C(=O)CN(/N=C/c4ccc([N+](=O)[O-])o4)C3=O)nn2)cc1
Activity (HeLa [27]): Active | Activity (HeLa [28]): Active | Activity (MCF7 [29]): Active | Activity (HeLa [30]): Active | Activity (MCF7 [31]): Active | Activity (MCF7 [32]): 0.6% | Activity (Caco-2 [33]): 22.46% | Activity (MCF7 [34]): 300% | Activity (HeLa [35]): 39.42%

From ChEMBL document CHEMBL5380816, “Inclusion of Nitrofurantoin into the Realm of Cancer Chemotherapy via Biology-Oriented Synthesis and Drug Repurposing” (J Med Chem, 2023)
